Data as given in patent US10633407B2, “14-membered ketolides and methods of their preparation and use” (President and Fellows of Harvard College, priority 2014, dated 2020).
≈ marks a conversion by molar mass, not a printed value. Like-named read-outs stand apart in the source and are kept apart here.

What was measured:
Test in all cases: CLSI broth dilution MIC determination
Type in all cases: cell-based
E. faecalis ATCC 29212 = tested on: E. faecalis ATCC 29212
[1] = tested on: A. baumannii chromosomal class C
A. baumannii IMP-4 = tested on: A. baumannii IMP-4
A. baumannii ATCC 19606 = tested on: A. baumannii ATCC 19606
[2] = tested on: A. baumannii imipenem-resistant
[3] = tested on: S. pyogenes Macrolide-resistant
[4] = tested on: E. faecalis Vancomycin-resistant
S. pyogenes ATCC 19615 = tested on: S. pyogenes ATCC 19615
K. pneumoniae SHV-12 = tested on: K. pneumoniae SHV-12
K. pneumoniae KPC-2 = tested on: K. pneumoniae KPC-2
E. coli TEM-1 = tested on: E. coli TEM-1
How it was run: (§1)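 Read-out is the MIC by broth dilution, done according to CLSI standard procedures, with azithromycin and solithromycin included as control macrolides in many runs.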

S. aureus ATCC 29213 = tested on: S. aureus ATCC 29213
How it was run: as §1

S. aureus USA600, GISA = tested on: S. aureus USA600, GISA
How it was run: as §1

[5] = tested on: S. pneumoniae mef A genotype (second strain so labelled)
How it was run: as §1

S. aureus MRSA: USA100 = tested on: S. aureus MRSA: USA100
How it was run: as §1

[6] = tested on: S. pneumoniae erm B + tet(M,O) genotype; details: Streptococcus pneumoniae
How it was run: as §1

S. aureus erm A genotype = tested on: S. aureus erm A genotype
How it was run: as §1

S. pneumoniae ATCC 49619 = tested on: S. pneumoniae ATCC 49619
How it was run: as §1

E. coli NDM-1 = tested on: E. coli NDM-1
How it was run: as §1

S. aureus MRSA: USA300 = tested on: S. aureus MRSA: USA300
How it was run: as §1

H. influenzae ATCC49247 = tested on: H. influenzae ATCC49247
How it was run: as §1

[7] = tested on: S. pneumoniae erm B + mef A genotype; details: Streptococcus pneumoniae
How it was run: as §1

K. pneumoniae TEM-10 = tested on: K. pneumoniae TEM-10
E. coli CTX-M-14 = tested on: E. coli CTX-M-14
How it was run: as §1

E. coli ATCC 25922 = tested on: E. coli ATCC 25922
How it was run: as §1

[8] = tested on: P. aeruginosa HPA101-1477
[9] = tested on: H. influenzae Erythro >4, Azithro 1
Description: MIC data was collected for the novel macrolides that this platform has produced against over 21 unique strains of B. subtilis, E. coli, S. aureus, S. pneumoniae, and H. influenzae, including several multidrug-resistant strains, with a special focus on macrolide resistant mechanisms (vide supra). […] CLSI standard procedures for broth dilution MIC determination were used. […] These genotypes can be constitutive or inducible.

P. aeruginosa ATCC 27853 = tested on: P. aeruginosa ATCC 27853
K. pneumoniae ATCC 10031 = tested on: K. pneumoniae ATCC 10031
[10] = Acinetobacter baumannii, read-out: MIC
[11] = Haemophilus influenzae, read-out: MIC

CC[C@H]1OC(=O)[C@@](C)(F)C(=O)[C@H](C)[C@@H](O[C@@H]2OC(C)CC(N(C)C)C2O)[C@](C)(OC)C[C@@H](C)C(=O)[C@H](C)[C@H]2N(CC#CCn3cc(-c4cccc(N)c4)nn3)C(=O)O[C@]12C (some centres unmarked) [FSM-100426]
MIC (E. faecalis ATCC 29212; E. faecalis ATCC 29212, Gram-positive): < 0.0312 µg/mL
MIC (E. faecalis ATCC 29212; Enterococcus faecalis, ATCC29212, E. faecalis ATCC 29212 (MP-24), read-out: MIC): < 0.0312 µg/mL
MIC [1, 10]: 32 µg/mL (≈ 38.1 µM)
MIC ([1]; Gram-negative): 32 µg/mL (≈ 38.1 µM)
MIC (A. baumannii IMP-4; Acinetobacter baumannii, IMP4, read-out: MIC): > 32 µg/mL
MIC (A. baumannii IMP-4; Gram-negative): > 32 µg/mL
MIC (A. baumannii ATCC 19606; A. baumannii ATCC 19606, Gram-negative): 16 µg/mL (≈ 19 µM)
MIC (A. baumannii ATCC 19606; Acinetobacter baumannii, ATCC19606, A. baumannii ATCC 19606 (MP-15), read-out: MIC): 16 µg/mL (≈ 19 µM)
MIC [2, 10]: 8 µg/mL (≈ 9.51 µM)
MIC ([2]; Gram-negative): 8 µg/mL (≈ 9.51 µM)
MIC ([3]; S. pyogenes Macrolide-resistant, Gram-positive): < 0.0312 µg/mL
MIC ([3]; Streptococcus pyogenes, S. pyogenes Macrolide-resistant (MP-625 UNT-014), read-out: MIC): < 0.0312 µg/mL
MIC ([4]; E. faecalis Vancomycin-resistant, Gram-positive): 8 µg/mL (≈ 9.51 µM)
MIC ([4]; Enterococcus faecalis, E. faecalis Vancomycin-resistant (UNT-039), read-out: MIC): 8 µg/mL (≈ 9.51 µM)
MIC (S. pyogenes ATCC 19615; S. pyogenes ATCC 19615, Gram-positive): < 0.0312 µg/mL
MIC (S. pyogenes ATCC 19615; Streptococcus pyogenes, ATCC19615, S. pyogenes ATCC 19615 (MP-19), read-out: MIC): < 0.0312 µg/mL
MIC (K. pneumoniae SHV-12; Gram-negative): > 32 µg/mL
MIC (K. pneumoniae SHV-12; Klebsiella pneumoniae, SHV12, read-out: MIC): > 32 µg/mL
MIC (K. pneumoniae KPC-2; Gram-negative): > 32 µg/mL
MIC (K. pneumoniae KPC-2; Klebsiella pneumoniae, KPC2, read-out: MIC): > 32 µg/mL
MIC (E. coli TEM-1; E. coli TEM-1, Gram-negative): > 32 µg/mL
MIC (E. coli TEM-1; Escherichia coli, TEM1): > 32 µg/mL
MIC (S. aureus ATCC 29213; S. aureus ATCC 29213, Gram-positive): 0.0625 µg/mL (≈ 0.0743 µM)
MIC (S. aureus ATCC 29213; Staphylococcus aureus, ATCC29213, S. aureus ATCC 29213 (MP-12), read-out: MIC): 0.0625 µg/mL (≈ 0.0743 µM)
MIC (S. aureus USA600, GISA; S. aureus USA600, GISA, Gram-positive): 32 µg/mL (≈ 38.1 µM)
MIC (S. aureus USA600, GISA; Staphylococcus aureus, S. aureus USA600, GISA (MP-619 UNT-120), read-out: MIC): 32 µg/mL (≈ 38.1 µM)
MIC ([5]; Gram-positive): < 0.0312 µg/mL
MIC ([5]; Streptococcus pneumoniae, second strain (MP-627 UNT-039), read-out: MIC): < 0.0312 µg/mL
MIC (S. aureus MRSA: USA100; S. aureus MRSA: USA100, Gram-positive): > 32 µg/mL
MIC (S. aureus MRSA: USA100; Staphylococcus aureus, S. aureus MRSA: USA100 (MP-618 UNT-096), read-out: MIC): > 32 µg/mL
MIC [6]: < 0.0312 µg/mL
MIC (S. aureus erm A genotype; S. aureus erm A genotype, Gram-positive): > 32 µg/mL
MIC (S. aureus erm A genotype; Staphylococcus aureus, S. aureus erm A genotype (MP-620 UNT-146), read-out: MIC): > 32 µg/mL
MIC (S. pneumoniae ATCC 49619; S. pneumoniae ATCC 49619, Gram-positive): < 0.0312 µg/mL
MIC (S. pneumoniae ATCC 49619; Streptococcus pneumoniae, ATCC49619, S. pneumoniae ATCC 49619 (MP-21), read-out: MIC): < 0.0312 µg/mL
MIC (E. coli NDM-1; Escherichia coli, NDM1, read-out: MIC): > 32 µg/mL
MIC (E. coli NDM-1; Gram-negative): > 32 µg/mL
MIC (S. aureus MRSA: USA300; S. aureus MRSA: USA300, Gram-positive): 0.5 µg/mL (≈ 0.595 µM)
MIC (S. aureus MRSA: USA300; Staphylococcus aureus, S. aureus MRSA: USA300 (MP-549, msr(a)), read-out: MIC): 0.5 µg/mL (≈ 0.595 µM)
MIC (H. influenzae ATCC49247; Gram-negative): 4 µg/mL (≈ 4.76 µM)
MIC (H. influenzae ATCC49247; [11]): 4 µg/mL (≈ 4.76 µM)
MIC [7]: < 0.0312 µg/mL
MIC (K. pneumoniae TEM-10; Gram-negative): > 32 µg/mL
MIC (K. pneumoniae TEM-10; Klebsiella pneumoniae, TEM10, read-out: MIC): > 32 µg/mL
MIC (E. coli CTX-M-14; Escherichia coli, CTXM14, read-out: MIC): > 32 µg/mL
MIC (E. coli CTX-M-14; Gram-negative): > 32 µg/mL
MIC (E. coli ATCC 25922; E. coli ATCC 25922, Gram-negative): 32 µg/mL (≈ 38.1 µM)
MIC (E. coli ATCC 25922; Escherichia coli, ATCC25922, E. coli ATCC 25922 (MP-4), read-out: MIC): 32 µg/mL (≈ 38.1 µM)
MIC ([8]; Gram-negative): > 32 µg/mL
MIC ([8]; Pseudomonas aeruginosa, HPA1011477, read-out: MIC): > 32 µg/mL
MIC ([9]; H. influenzae Erythro >4, Azithro 1, Gram-negative): 4 µg/mL (≈ 4.76 µM)
MIC [9, 11]: 4 µg/mL (≈ 4.76 µM)
MIC (P. aeruginosa ATCC 27853; P. aeruginosa ATCC 27853, Gram-negative): > 32 µg/mL
MIC (P. aeruginosa ATCC 27853; Pseudomonas aeruginosa, ATCC27853, P. aeruginosa ATCC 27853 (MP-3), read-out: MIC): > 32 µg/mL
MIC (K. pneumoniae ATCC 10031; K. pneumoniae ATCC 10031, Gram-negative): 8 µg/mL (≈ 9.51 µM)
MIC (K. pneumoniae ATCC 10031; Klebsiella pneumoniae, ATCC10031, K. pneumoniae ATCC 10031 (MP-14), read-out: MIC): 8 µg/mL (≈ 9.51 µM)
